Laboratory results published in patent US10519177B2, “Heterocyclic compounds and uses thereof” (Plexxikon Inc., priority 2013, dated 2019).

These compounds were tested against BRD4-BD1 (44-164) (Homo sapiens (Human), UniProt O60885) (assay: Alphascreen binding assay BRD4-BD1). Conditions: BRD4(1) H4; read-out: Biochemical activity (IC50 μM) BRD4(1) H4.
In short: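 His-tagged E. coli-expressed BRD4 BD1 (44-164) or BD1-BD2 (1-477) incubated 1 h at room temperature with biotinylated tetra-acetylated histone H4 1-21 peptide and compound in HEPES pH 7.5, NaCl, BSA, Triton X-100, DTT buffer. Ni-chelate/streptavidin AlphaScreen beads (7.5 µg/ml) added, read after 30 min; pIC50 from four-parameter fit.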
With `Cc1noc(C)c1-c1cnc2c(-c3cnn(C)c3)cn(C(C(=O)O)c3ccccc3)c2c1` (stereo not shown) [P-0206, 2-[6-(3,5-dimethylisoxazol-4-yl)-3-(1-methylpyrazol-4-yl)pyrrolo[3,2-b]pyridin-1-yl]-2-phenyl-acetic acid] the IC50 was under 1 µM. Work on `COc1ncc(F)cc1C(O)c1c[nH]c2ncc(-c3c(C)noc3C)cc12` (stereo not shown) [P-0022, [5-(3,5-dimethylisoxazol-4-yl)-1H-pyrrolo[2,3-b]pyridin-3-yl]-(5-fluoro-2-methoxy-3-pyridyl)methanol] yielded an IC50 of under 1 µM. Work on `Cc1noc(C)c1-c1cnc2[nH]cc(P(C)(=O)c3ccccc3)c2c1` (stereo not shown) [P-0165, 3,5-dimethyl-4-[3-[methyl(phenyl)phosphoryl]-1H-pyrrolo[2,3-b]pyridin-5-yl]isoxazole] yielded an IC50 of under 1 µM. `Cc1noc(C)c1-c1cnc2c(c1)c(C(O)C1CCSCC1)cn2S(=O)(=O)c1ccccc1` (stereo not shown) [P-0090, [1-(benzenesulfonyl)-5-(3,5-dimethylisoxazol-4-yl)pyrrolo[2,3-b]pyridin-3-yl]-tetrahydrothiopyran-4-yl-methanol] was tested, and the IC50 was under 1 µM. For `Cc1noc(C)c1-c1cnc2ccn(S(=O)(=O)C3CCCC3)c2c1` [P-0037, 4-(1-cyclopentyl-sulfonylpyrrolo[3,2-b]pyridin-6-yl)-3,5-dimethyl-isoxazole], the IC50 was under 1 µM. `Cc1noc(C)c1-c1cnc2c(I)cn(S(=O)(=O)c3ccccc3)c2c1` [P-0076, 4-[1-(benzenesulfonyl)-3-iodo-pyrrolo[3,2-b]pyridin-6-yl]-3,5-dimethyl-isoxazole] was tested, and the IC50 was under 1 µM. Work on `Cc1noc(C)c1-c1cnc2c(-c3cnn(C)c3)cn(Cc3ccccn3)c2c1` [P-0198, 3,5-dimethyl-4-[3-(1-methylpyrazol-4-yl)-1-(2-pyridylmethyl)pyrrolo[3,2-b]pyridin-6-yl]isoxazole] yielded an IC50 of under 1 µM. `Cc1noc(C)c1-c1cnc2ccn(Cc3ccccc3)c2c1` [P-0162, 4-(1-benzylpyrrolo[3,2-b]pyridin-6-yl)-3,5-dimethyl-isoxazole] was tested, and the IC50 was under 1 µM. Compound `CCc1[nH]c2ncc(-c3c(C)noc3C)cc2c1C(O)c1cccc(OC(F)(F)F)c1` (stereo not shown) [P-0043, [5-(3,5-dimethylisoxazol-4-yl)-2-ethyl-1H-pyrrolo[2,3-b]pyridin-3-yl]-[3-(trifluoromethoxy)phenyl]methanol] has an IC50 of under 1 µM. `Cc1noc(C)c1-c1cnc2c(-c3cnn(CC(F)(F)F)c3)cn(S(=O)(=O)c3ccccc3)c2c1` [P-0146, 4-[1-(benzenesulfonyl)-3-[1-(2,2,2-trifluoroethyl)pyrazol-4-yl]pyrrolo[3,2-b]pyridin-6-yl]-3,5-dimethyl-isoxazole] was tested, and the IC50 was under 1 µM. `Cc1noc(C)c1-c1cnc2c(-c3cc(C(F)(F)F)n[nH]3)cn(C(C)c3ccccc3)c2c1` (stereo not shown) [P-0215, 3,5-dimethyl-4-[1-(1-phenylethyl)-3-[3-(trifluoromethyl)-1H-pyrazol-5-yl]pyrrolo[3,2-b]pyridin-6-yl]isoxazole] was tested, and the IC50 was under 1 µM. `Cc1noc(C)c1-c1cnc2[nH]cc(C(O)C3CCC(F)(F)CC3)c2c1` (stereo not shown) [P-0030, (4,4-difluorocyclohexyl)-[5-(3,5-dimethylisoxazol-4-yl)-1H-pyrrolo[2,3-b]pyridin-3-yl]methanol] gave an IC50 of under 1 µM. In the case of `Cc1noc(C)c1-c1cnc2[nH]cc(Cc3ccccc3OC(F)F)c2c1` [P-0047, 4-[3-[[2-(difluoro-methoxy)phenyl]methyl]-1H-pyrrolo[2,3-b]pyridin-5-yl]-3,5-dimethyl-isoxazole], the IC50 is reported as under 1 µM. `C=CCn1cc(-c2cn(S(=O)(=O)C3CCCC3)c3cc(-c4c(C)noc4C)cnc23)cn1` [P-0128, 4-[3-(1-allylpyrazol-4-yl)-1-cyclopentyl-sulfonyl-pyrrolo[3,2-b]pyridin-6-yl]-3,5-dimethyl-isoxazole] gave an IC50 of under 1 µM. `Cc1noc(C)c1-c1cnc2c(-c3cnn(C)c3)cn(CC3CC(F)(F)C3)c2c1` [P-0213, 4-[1-[(3,3-difluorocyclobutyl)methyl]-3-(1-methylpyrazol-4-yl)pyrrolo[3,2-b]pyridin-6-yl]-3,5-dimethyl-isoxazole] gave an IC50 of under 1 µM. Work on `C=CCn1cc(-c2cn(Cc3ccccc3)c3cc(-c4c(C)noc4C)cnc23)cn1` [P-0160, 4-[3-(1-allylpyrazol-4-yl)-1-benzyl-pyrrolo[3,2-b]pyridin-6-yl]-3,5-dimethyl-isoxazole] yielded an IC50 of under 1 µM. In the case of `Cc1noc(C)c1-c1cnc2[nH]cc(C(c3ccc(F)cc3)(C3CC3)C3CC3)c2c1` [P-0085, 4-[3-[dicyclopropyl-(4-fluorophenyl)methyl]-1H-pyrrolo[2,3-b]pyridin-5-yl]-3,5-dimethyl-isoxazole], the IC50 is reported as under 1 µM. Compound `Cc1noc(C)c1-c1cnc2[nH]cc(S(=O)(=O)c3ccccc3)c2c1` [P-0145, 4-[3-(benzenesulfonyl)-1H-pyrrolo[2,3-b]pyridin-5-yl]-3,5-dimethyl-isoxazole] has an IC50 of under 1 µM. For `Cc1noc(C)c1-c1cnc2[nH]cc(S(=O)(=O)c3cccc(F)c3)c2c1` [P-0143, 4-[3-(3-fluorophenyl)sulfonyl-1H-pyrrolo[2,3-b]pyridin-5-yl]-3,5-dimethyl-isoxazole], the IC50 was under 1 µM. Compound `CCCS(=O)(=O)n1cc(-c2cnn(CCOC)c2)c2ncc(-c3c(C)noc3C)cc21` [P-0152, 4-[3-[1-(2-methoxy-ethyl)pyrazol-4-yl]-1-propylsulfonyl-pyrrolo[3,2-b]pyridin-6-yl]-3,5-dimethyl-isoxazole] has an IC50 of under 1 µM. With `CCOC(=O)C(c1ccccc1)n1cc(-c2cnn(C)c2)c2ncc(-c3c(C)noc3C)cc21` (stereo not shown) [P-0186, ethyl 2-[6-(3,5-dimethylisoxazol-4-yl)-3-(1-methylpyrazol-4-yl)pyrrolo[3,2-b]pyridin-1-yl]-2-phenyl-acetate] the IC50 was under 1 µM. Compound `Cc1noc(C)c1-c1cnc2[nH]cc(CC3CCC(F)(F)CC3)c2c1` [P-0034, 4-[3-[(4,4-difluoro-cyclohexyl)methyl]-1H-pyrrolo[2,3-b]pyridin-5-yl]-3,5-dimethyl-isoxazole] has an IC50 of under 1 µM. In the case of `Cc1noc(C)c1-c1cnc2c(-c3cnn(C)c3)cn(C(CO)c3ccccc3)c2c1` (stereo not shown) [P-0192, 2-[6-(3,5-dimethylisoxazol-4-yl)-3-(1-methylpyrazol-4-yl)pyrrolo[3,2-b]pyridin-1-yl]-2-phenyl-ethanol], the IC50 is reported as under 1 µM. `Cc1noc(C)c1-c1cnc2ccn(C(C)c3ccccc3)c2c1` (stereo not shown) [P-0159, 3,5-dimethyl-4-[1-(1-phenylethyl)pyrrolo[3,2-b]pyridin-6-yl]isoxazole] was tested, and the IC50 was under 1 µM. `Cc1noc(C)c1-c1cnc2[nH]cc(C3(O)CCC(F)(F)CC3)c2c1` [P-0024, 1-[5-(3,5-dimethylisoxazol-4-yl)-1H-pyrrolo[2,3-b]pyridin-3-yl]-4,4-difluoro-cyclohexanol] gave an IC50 of under 1 µM. In the case of `Cc1noc(C)c1-c1cnc2c(-c3cnn(C4CCCCO4)c3)cn(S(=O)(=O)c3ccccc3)c2c1` (stereo not shown) [P-0168, 4-[1-(benzenesulfonyl)-3-(1-tetrahydropyran-2-ylpyrazol-4-yl)pyrrolo[3,2-b]pyridin-6-yl]-3,5-dimethyl-isoxazole], the IC50 is reported as under 1 µM. `CCCS(=O)(=O)n1cc(-c2cnn(C(F)F)c2)c2ncc(-c3c(C)noc3C)cc21` [P-0135, 4-[3-[1-(difluoro-methyl)pyrazol-4-yl]-1-propylsulfonyl-pyrrolo[3,2-b]pyridin-6-yl]-3,5-dimethyl-isoxazole] showed an IC50 of under 1 µM. In the case of `Cc1nc(Cn2cc(-c3cnn(C)c3)c3ncc(-c4c(C)noc4C)cc32)cs1` [P-0170, 3,5-dimethyl-4-[3-(1-methylpyrazol-4-yl)-1-[(2-methylthiazol-4-yl)methyl]pyrrolo[3,2-b]pyridin-6-yl]isoxazole], the IC50 is reported as under 1 µM. Compound `Cc1noc(C)c1-c1cnc2ccn(C(CC#N)C3CCCC3)c2c1` (stereo not shown) [P-0196, 3-cyclopentyl-3-[6-(3,5-dimethylisoxazol-4-yl)pyrrolo[3,2-b]pyridin-1-yl]propanenitrile] has an IC50 of under 1 µM. For `Cc1noc(C)c1-c1cnc2c(C#CCF)cn(S(=O)(=O)C3CCCC3)c2c1` [P-0158, 4-[1-cyclopentylsulfonyl-3-(3-fluoroprop-1-ynyl)pyrrolo[3,2-b]pyridin-6-yl]-3,5-dimethyl-isoxazole], the IC50 was under 1 µM. Work on `Cc1noc(C)c1-c1cnc2c(-c3cnn(C)c3)cn(C(C(=O)NC3CC3)c3ccccc3)c2c1` (stereo not shown) [P-0207, N-cyclopropyl-2-[6-(3,5-dimethylisoxazol-4-yl)-3-(1-methylpyrazol-4-yl)pyrrolo[3,2-b]pyridin-1-yl]-2-phenyl-acetamide] yielded an IC50 of under 1 µM. Work on `Cc1noc(C)c1-c1cnc2c(-c3cnn(C)c3)cn(S(=O)(=O)c3ccc(F)cc3)c2c1` [P-0123, 4-[1-(4-fluorophenyl)sulfonyl-3-(1-methyl-pyrazol-4-yl)pyrrolo[3,2-b]pyridin-6-yl]-3,5-dimethyl-isoxazole] yielded an IC50 of under 1 µM. `Cc1noc(C)c1-c1cnc2c(-c3cnn(C)c3)cn(S(=O)(=O)c3ccccc3)c2c1` [P-0110, 4-[1-(benzenesulfonyl)-3-(1-methylpyrazol-4-yl)pyrrolo[3,2-b]pyridin-6-yl]-3,5-dimethyl-isoxazole] showed an IC50 of under 1 µM. For `Cc1noc(C)c1-c1cnc2c(-c3cn[nH]c3)cn(S(=O)(=O)C3CCCC3)c2c1` [P-0167, 4-[1-cyclopentylsulfonyl-3-(1H-pyrazol-4-yl)pyrrolo[3,2-b]pyridin-6-yl]-3,5-dimethyl-isoxazole], the IC50 was under 1 µM. `Cc1noc(C)c1-c1cnc2[nH]cc(Cc3ccccc3Cl)c2c1` [P-0026, 4-[3-[(2-chlorophenyl)methyl]-1H-pyrrolo[2,3-b]pyridin-5-yl]-3,5-dimethyl-isoxazole] gave an IC50 of under 1 µM. `Cc1noc(C)c1-c1cnc2[nH]cc(C(O)c3ccccc3OC(F)F)c2c1` (stereo not shown) [P-0040, [2-(difluoromethoxy)phenyl]-[5-(3,5-dimethylisoxazol-4-yl)-1H-pyrrolo[2,3-b]pyridin-3-yl]methanol] gave an IC50 of under 1 µM. For `Cc1noc(C)c1-c1cnc2c(CC3CC3)cn(S(=O)(=O)C3CCCCC3)c2c1` [P-0075, 4-[1-cyclohexylsulfonyl-3-(cyclopropylmethyl)pyrrolo[3,2-b]pyridin-6-yl]-3,5-dimethyl-isoxazole], the IC50 was under 1 µM.
